Source: patent US12528815B2, “5-amino-8-(4-pyridyl)-[1,2,4]triazolo[4,3-c]pyrimidin-3-one compounds for use against cancer” (Nxera Pharma UK Limited, priority 2020, dated 2026)

Legend:
[1] = molecular target: T1, human adenosine A1 receptor (Homo sapiens, UniProt P30542); test: Inhibition binding assay, human adenosine A1 receptor membranes, [3H]DPCPX; conditions: 1 nM [3H]DPCPX, 25° C., 1 h; IC50 converted to Ki with Cheng-Prusoff; read-out: A1 pKi (converted)
T1 construct: expressed in transfected cells; host or cells: HEK293 cells infected with BacMam (the same paragraph also labels the preparation CHO-hA1)
T1 sequence (P30542 1-326): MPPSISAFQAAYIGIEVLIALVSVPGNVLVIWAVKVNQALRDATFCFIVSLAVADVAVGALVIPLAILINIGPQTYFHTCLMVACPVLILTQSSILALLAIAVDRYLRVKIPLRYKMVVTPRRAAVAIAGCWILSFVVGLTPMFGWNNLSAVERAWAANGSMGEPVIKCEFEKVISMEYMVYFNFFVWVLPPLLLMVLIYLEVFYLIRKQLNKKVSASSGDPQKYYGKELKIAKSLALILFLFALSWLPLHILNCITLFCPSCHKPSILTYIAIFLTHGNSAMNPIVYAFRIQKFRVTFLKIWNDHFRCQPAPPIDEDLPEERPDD
Method in brief: (§1)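 Membranes from BacMam-infected HEK293 cells (0.2 μg A2A, 1.4 μg A1) incubated 1 h at 25° C with test compound and 1 nM [3H]ZM241385 (A2A; 50 mM Tris-HCl pH 7.4) or [3H]DPCPX (A1; plus 100 mM NaCl, 10 mM MgCl2). Nonspecific: 1 μM CGS15943 or DPCPX. Filtration, scintillation; IC50 converted to Ki via Cheng-Prusoff.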

[2] = molecular target: T2, human adenosine A2A receptor (Homo sapiens, UniProt P29274); test: Inhibition binding assay, human adenosine A2A receptor membranes, [3H]ZM241385; conditions: 1 nM [3H]ZM241385, HEK293-hA2A membranes, 25° C., 1 h; IC50 converted to Ki with Cheng-Prusoff; read-out: A2A pKi (converted)
T2 construct: expressed in transfected cells; host or cells: HEK293 cells infected with BacMam
T2 sequence (P29274 whole entry): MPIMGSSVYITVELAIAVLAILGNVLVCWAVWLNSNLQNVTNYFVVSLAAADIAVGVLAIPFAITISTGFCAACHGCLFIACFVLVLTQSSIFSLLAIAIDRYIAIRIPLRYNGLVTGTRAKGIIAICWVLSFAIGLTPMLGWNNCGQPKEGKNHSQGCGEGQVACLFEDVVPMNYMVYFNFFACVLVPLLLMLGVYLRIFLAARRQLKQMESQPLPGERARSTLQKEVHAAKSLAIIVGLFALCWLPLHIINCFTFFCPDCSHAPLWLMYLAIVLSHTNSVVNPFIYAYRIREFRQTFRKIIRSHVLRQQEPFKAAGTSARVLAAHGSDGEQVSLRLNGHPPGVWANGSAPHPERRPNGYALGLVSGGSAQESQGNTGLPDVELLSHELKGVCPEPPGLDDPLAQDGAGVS
Method in brief: as §1

Ki [1] [nM] | Ki [2] [nM] | SMILES
398 | 1.58 | [2H]c1c([2H])c([2H])c(-c2nc(N)n3c(=O)n(Cc4ccc(F)cn4)nc3c2-c2cc(C)nc(CO)c2)c([2H])c1[2H] [Example 1-49, 5-amino-2-[(5-fluoro-2-pyridyl)methyl]-8-[2-(hydroxymethyl)-6-methyl-4-pyridyl]-7-(2,3,4,5,6-pentadeuteriophenyl)-[1,2,4]triazolo[4,3-c]pyrimidin-3-one]
200 | 3.98 | Cc1cc(-c2c(-c3ccccc3)nc(N)n3c(=O)n(Cc4cccnn4)nc23)cc(CO)n1 [Example 1-56, 5-amino-8-[2-(hydroxymethyl)-6-methyl-4-pyridyl]-7-phenyl-2-(pyridazin-3-ylmethyl)-[1,2,4]triazolo[4,3-c]pyrimidin-3-one]
501 | 63.1 | CCC(c1ccc(F)cn1)n1nc2c(-c3cc(C)nc(C)c3)c(-c3ccccc3)nc(N)n2c1=O (single isomer, unassigned) [1-38 iso-1, 5-amino-8-(2,6-dimethyl-4-pyridyl)-2-[1-(5-fluoro-2-pyridyl)propyl]-7-phenyl-[1,2,4]triazolo[4,3-c]pyrimidin-3-one]
1000 | 6.31 | Cc1cc(-c2c(-c3ccccc3)nc(N)n3c(=O)n(CC4CCN(C(=O)OC(C)(C)C)CC4)nc23)cc(C)n1 [Example 2-67, tert-butyl 4-[[5-amino-8-(2,6-dimethyl-4-pyridyl)-3-oxo-7-phenyl-[1,2,4]triazolo[4,3-c]pyrimidin-2-yl]methyl]piperidine-1-carboxylate]
> 3160 | 398 | CCC(c1ccc(F)cn1)n1nc2c(-c3cc(C)nc(CO)c3)c(-c3ccccc3)nc(N)n2c1=O (single isomer, unassigned) [1-46 iso-1, 5-amino-2-[1-(5-fluoro-2-pyridyl)propyl]-8-[2-(hydroxymethyl)-6-methyl-4-pyridyl]-7-phenyl-[1,2,4]triazolo[4,3-c]pyrimidin-3-one]
501 | 3.98 | CCCn1nc2c(-c3cc(C)nc(C)c3)c(-c3ccccc3)nc(N)n2c1=O [Example 2-20, 5-amino-8-(2,6-dimethyl-4-pyridyl)-7-phenyl-2-propyl-[1,2,4]triazolo[4,3-c]pyrimidin-3-one]
1000 | 2 | Cc1cc(-c2c(-c3ccccc3)nc(N)n3c(=O)n(CCC(F)F)nc23)cc(C)n1 [Example 2-17, 5-amino-2-(3,3-difluoropropyl)-8-(2,6-dimethyl-4-pyridyl)-7-phenyl-[1,2,4]triazolo[4,3-c]pyrimidin-3-one]
> 3980 | 39.8 | Cc1cc(-c2c(-c3ccncc3)nc(N)n3c(=O)n(CCC(F)(F)F)nc23)cc(C)n1 [Example 2-38, 5-amino-8-(2,6-dimethyl-4-pyridyl)-7-(4-pyridyl)-2-(3,3,3-trifluoropropyl)-[1,2,4]triazolo[4,3-c]pyrimidin-3-one]
251 | 1.58 | Cc1cc(-c2c(-c3ccccc3)nc(N)n3c(=O)n(CC4CCCCO4)nc23)cc(CO)n1 (single isomer, unassigned) [Example 2-91-iso-2, 5-amino-8-[2-(hydroxymethyl)-6-methyl-4-pyridyl]-7-phenyl-2-(tetrahydropyran-2-ylmethyl)-[1,2,4]triazolo[4,3-c]pyrimidin-3-one]
794 | 15.8 | Cc1cc(-c2c(-c3ccccc3)nc(N)n3c(=O)n(C[C@@H]4COCCN4)nc23)cc(C)n1 [Example 2-79, (R)-5-amino-8-(2,6-dimethylpyridin-4-yl)-2-(morpholin-3-ylmethyl)-7-phenyl-[1,2,4]triazolo[4,3-c]pyrimidin-3(2H)-one]
> 3160 | 20 | Cc1cc(-c2c(-c3ccc(C#N)cc3)nc(N)n3c(=O)n(CCC(F)(F)F)nc23)cc(C)n1 [Example 2-36, 4-[5-amino-8-(2,6-dimethyl-4-pyridyl)-3-oxo-2-(3,3,3-trifluoropropyl)-[1,2,4]triazolo[4,3-c]pyrimidin-7-yl]benzonitrile]
316 | 158 | Cc1cc(-c2c(-c3ccccc3)nc(N)n3c(=O)n(C(CN)Cc4ccc(F)cc4F)nc23)cc(C)n1 (stereo not shown) [Example 1-100, 5-amino-2-[1-(aminomethyl)-2-(2,4-difluorophenyl)ethyl]-8-(2,6-dimethyl-4-pyridyl)-7-phenyl-[1,2,4]triazolo[4,3-c]pyrimidin-3-one]
1000 | 10 | Cc1cc(-c2c(-c3ccccc3)nc(N)n3c(=O)n(C[C@@H]4CN(C(=O)OC(C)(C)C)CCN4C)nc23)cc(C)n1 [Example 2-83, tert-butyl (S)-3-((5-amino-8-(2,6-dimethylpyridin-4-yl)-3-oxo-7-phenyl-[1,2,4]triazolo[4,3-c]pyrimidin-2(3H)-yl)methyl)-4-methylpiperazine-1-carboxylate]
2 | 0.158 | Cc1cc(-c2c(-c3ccccc3)nc(N)n3c(=O)n(Cc4ccccc4OCC4CC4)nc23)cc(C)n1 [Example 1-22, 5-amino-2-[[2-(cyclopropylmethoxy)phenyl]methyl]-8-(2,6-dimethyl-4-pyridyl)-7-phenyl-[1,2,4]triazolo[4,3-c]pyrimidin-3-one]
501 | 0.631 | COc1cc(-c2c(-c3ccccc3)nc(N)n3c(=O)n(Cc4ccc(C)cn4)nc23)cc(CO)n1 [Example 1-66, 5-amino-8-[2-(hydroxymethyl)-6-methoxy-4-pyridyl]-2-[(5-methyl-2-pyridyl)methyl]-7-phenyl-[1,2,4]triazolo[4,3-c]pyrimidin-3-one]
501 | 10 | CCOC(=O)NCCn1nc2c(-c3cc(C)nc(C)c3)c(-c3ccccc3)nc(N)n2c1=O [Example 2-12, ethyl N-[2-[5-amino-8-(2,6-dimethyl-4-pyridyl)-3-oxo-7-phenyl-[1,2,4]triazolo[4,3-c]pyrimidin-2-yl]ethyl]carbamate]
39.8 | 0.794 | Cc1cc(-c2c(-c3ccccc3)nc(N)n3c(=O)n(CCC(C)C)nc23)cc(C)n1 [Example 2-5, 5-amino-8-(2,6-dimethyl-4-pyridyl)-2-isopentyl-7-phenyl-[1,2,4]triazolo[4,3-c]pyrimidin-3-one]
1000 | 39.8 | CNC(=O)c1cc(NCCn2nc3c(-c4cc(C)nc(C)c4)c(-c4ccccc4)nc(N)n3c2=O)ccc1Cl [Example 1-91, 5-[2-[5-amino-8-(2,6-dimethyl-4-pyridyl)-3-oxo-7-phenyl-[1,2,4]triazolo[4,3-c]pyrimidin-2-yl]ethylamino]-2-chloro-N-methyl-benzamide]
6.31 | 0.2 | CCOc1ccccc1Cn1nc2c(-c3cc(C)nc(C)c3)c(-c3ccccc3)nc(N)n2c1=O [Example 1-25, 5-amino-8-(2,6-dimethyl-4-pyridyl)-2-[(2-ethoxyphenyl)methyl]-7-phenyl-[1,2,4]triazolo[4,3-c]pyrimidin-3-one]
> 3160 | 1260 | COc1nc(N)n2c(=O)n(CCC(F)(F)F)nc2c1-c1cc(C)nc(C)c1 [Example 3-8, 5-amino-8-(2,6-dimethyl-4-pyridyl)-7-methoxy-2-(3,3,3-trifluoropropyl)-[1,2,4]triazolo[4,3-c]pyrimidin-3-one]
